Like-named read-outs stand apart in the source and are kept apart here.

The source of these data is patent US6939680B2 (H. Lundbeck A/S, priority 1990, dated 2005).

Assay [1] has as its target T1, human dopamine D1 receptor clone GL-30 (dopamine D1β receptor) (Homo sapiens, UniProt P21918).
T1 construct: expressed in transfected cells; host or cells: Cos-7 cells, transient transfection with pcEXV-3 carrying GL-30
As to the kind of experiment: [3H]SCH-23390 radioligand binding (saturation and competition) to membranes of Cos-7 cells transfected with clone GL-30.

The subject of a further assay is DA1 receptor. Conditions: clinical trials; cited from earlier work.
The mark [2] stands for this setting: competition binding, GL-30 in Cos-7 membranes.

T1 sequence (P21918 whole entry): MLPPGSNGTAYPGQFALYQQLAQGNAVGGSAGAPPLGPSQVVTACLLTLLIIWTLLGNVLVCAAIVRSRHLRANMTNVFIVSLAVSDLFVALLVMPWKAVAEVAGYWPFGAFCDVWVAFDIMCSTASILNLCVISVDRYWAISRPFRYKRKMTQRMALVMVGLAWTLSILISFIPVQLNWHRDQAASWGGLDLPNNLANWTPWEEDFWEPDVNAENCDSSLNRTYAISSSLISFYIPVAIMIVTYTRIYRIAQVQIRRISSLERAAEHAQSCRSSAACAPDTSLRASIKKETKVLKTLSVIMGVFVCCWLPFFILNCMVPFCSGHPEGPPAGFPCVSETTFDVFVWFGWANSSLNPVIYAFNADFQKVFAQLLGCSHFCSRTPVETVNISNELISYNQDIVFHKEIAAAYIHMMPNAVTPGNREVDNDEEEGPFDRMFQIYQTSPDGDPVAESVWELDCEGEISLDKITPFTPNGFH

As to `CCN1CCC[C@H]1CNC(=O)c1cc(S(N)(=O)=O)ccc1OC` [(−) sulpiride], the “potency/affinity in displacing [3H]SCH-23390 binding (in words)” value (“potency/affinity in displacing” for short) in assay [1] (setting [2]) is “low affinity”. Take `COc1ccc2c(c1O)-c1c3c(cc4c1[C@H](C2)N(C)CC4)OCO3` [bulbocapnine]: in assay [1] (versus native rat and human brain tissues and Cos-7 cells transfected with the previously cloned D1 gene), the “Ki values compared with those reported for the D1 receptor” value is reported as “comparable”.

Turning to `Oc1ccc(C2CNCCc3c2cc(O)c(O)c3Cl)cc1` (stereo not drawn) [fenoldopam], the renal vasodilatory action result in the assay with DA1 receptor is “potent renal vasodilatory action”.

On to `NC[C@H](O)c1ccc(O)c(O)c1` [norepinephrine], for which the “potency/affinity in displacing” value in assay [1] (setting [2]) was “inactive”.

With `CCCN1CCC[C@@H]2Cc3n[nH]cc3C[C@H]21` [quinpirole], the “potency/affinity in displacing” value in assay [1] is on record as “low affinity”. The same measure, in the same setting: the entry for cis-flupenthixol is “most potent”.
